Experimental data taken from patent publication US20110178053A1, “AZACARBOLINE DERIVATIVES, PREPARATION METHOD THEREOF AND THERAPEUTIC USE OF SAME” (SANOFI-AVENTIS, priority 2008, published 2011).

Tests used:
Pim-1 = biological target: T1, Pim-1 (Homo sapiens, UniProt P11309); assay: TR-FRET assay, Pim-1 kinase (phosphorylation of Bad Ser112); type: biochemical; conditions: TR-FRET; ATP 40 μM; read-out: IC50 Pim1
T1 construct: His6-labelled recombinant full-length human Pim-1, Pim-2 or Pim-3 protein; His6; made in house
T1 sequence (P11309 whole entry): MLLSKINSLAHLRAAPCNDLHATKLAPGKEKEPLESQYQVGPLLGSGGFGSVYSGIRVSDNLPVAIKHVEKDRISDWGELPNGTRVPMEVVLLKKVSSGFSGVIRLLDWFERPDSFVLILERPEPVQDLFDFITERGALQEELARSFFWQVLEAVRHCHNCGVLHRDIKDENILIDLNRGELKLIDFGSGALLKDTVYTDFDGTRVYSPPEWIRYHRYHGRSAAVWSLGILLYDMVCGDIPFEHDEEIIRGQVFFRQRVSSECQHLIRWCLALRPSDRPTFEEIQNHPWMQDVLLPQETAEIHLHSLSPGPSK
How it was run: (§1)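 Recombinant His6-tagged full-length human Pim-1, Pim-2 or Pim-3 phosphorylates His6-tagged full-length human Bad at 40 μM ATP (apparent KM). Phospho-Ser112 is detected by TR-FRET between Eu-labelled anti-phosphoBad and APC-labelled anti-His6 (665/615 nm ratio); 10-point duplicate series, top typically 30 μM, IC50 from 4-parameter logistic fit.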

Pim-2 = biological target: T2, Pim-2 (Homo sapiens, UniProt Q9P1W9); assay: TR-FRET assay, Pim-2 kinase (phosphorylation of Bad Ser112); type: biochemical; conditions: TR-FRET; ATP 40 μM; read-out: IC50 Pim2
T2 construct: His6-labelled recombinant full-length human Pim-1, Pim-2 or Pim-3 protein; His6; made in house
T2 sequence (Q9P1W9 whole entry): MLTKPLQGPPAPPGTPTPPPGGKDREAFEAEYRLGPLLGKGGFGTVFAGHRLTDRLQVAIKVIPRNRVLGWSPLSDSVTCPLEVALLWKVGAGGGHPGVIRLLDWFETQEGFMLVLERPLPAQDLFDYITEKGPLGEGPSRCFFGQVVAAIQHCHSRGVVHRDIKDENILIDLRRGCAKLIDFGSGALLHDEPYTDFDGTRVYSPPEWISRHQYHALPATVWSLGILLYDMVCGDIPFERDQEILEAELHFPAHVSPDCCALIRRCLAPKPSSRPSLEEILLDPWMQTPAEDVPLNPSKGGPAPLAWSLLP
How it was run: as §1

Pim-3 = biological target: T3, Pim-3 (Homo sapiens, UniProt Q86V86); assay: TR-FRET assay, Pim-3 kinase (phosphorylation of Bad Ser112); type: biochemical; conditions: TR-FRET; ATP 40 μM; read-out: IC50 Pim3
T3 construct: His6-labelled recombinant full-length human Pim-1, Pim-2 or Pim-3 protein; His6; made in house
How it was run: as §1

PLK1 = PLK1 (Homo sapiens, UniProt P53350); assay: PLK1 biochemical inhibition
PLK1, sequence (P53350 whole entry, species assumed): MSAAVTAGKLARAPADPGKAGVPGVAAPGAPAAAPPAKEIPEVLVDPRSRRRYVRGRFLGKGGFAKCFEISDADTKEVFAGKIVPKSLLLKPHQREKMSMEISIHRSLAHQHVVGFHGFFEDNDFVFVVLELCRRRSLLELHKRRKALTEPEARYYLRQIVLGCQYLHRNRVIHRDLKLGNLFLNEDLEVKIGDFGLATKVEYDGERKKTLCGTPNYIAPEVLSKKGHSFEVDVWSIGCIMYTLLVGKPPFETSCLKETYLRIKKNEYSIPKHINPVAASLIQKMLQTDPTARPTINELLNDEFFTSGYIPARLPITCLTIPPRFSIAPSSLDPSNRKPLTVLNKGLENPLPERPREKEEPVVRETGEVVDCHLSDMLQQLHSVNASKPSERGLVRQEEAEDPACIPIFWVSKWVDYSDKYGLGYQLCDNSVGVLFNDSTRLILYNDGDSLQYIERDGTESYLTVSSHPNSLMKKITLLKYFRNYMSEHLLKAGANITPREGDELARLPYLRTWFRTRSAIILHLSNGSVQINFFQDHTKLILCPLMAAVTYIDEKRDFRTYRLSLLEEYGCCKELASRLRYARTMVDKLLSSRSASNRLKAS

EOL-1 = assay: Cell viability assay (CellTiter-Blue), EOL-1; type: cell-based; conditions: Homo sapiens, EOL1, read-out: EC50 EOL-1 μM (lymphoma); EOL-1 cells; cell proliferation/viability
Description: (§2) The representative compounds of the invention are also screened as regards their effects on cell proliferation and viability using a variety of human tumour cell lines, which are representative of various pathological indications. These cell lines include: • Models of haematological cancers: • TF-1 (acute myelogenic leukaemia; AML M6 at the time of diagnosis); • KG-1 (AML; erythroleukaemia evolving into AML); • KG-1a (AML; sub-clone derived from immature KG-1); • EOL-1 (AML; eosinophilic leukaemia); • PL-21 (AML; M3); • ML-2 (AML; T-NHL evolving into T-ALL evolving into AML M4); • HL-60 (AML, M3); • Kasumi-1 (AML); • GDM-1 (AML); • K-562 (CML—chronic myelogenic leukaemia; blastic crisis); • JURL-MK1 (CML; blastic crisis); • DND-41 (T-ALL—-cell acute lymphoblastic leukaemia); • Jurkat (T-ALL); NALM-6 (B-ALL—B-cell ALL); • CEM (ALL; lymphosarcoma evolving into ALL); • Jeko-1 (B-NHL—B-cell non-Hodgkin lymphoma; mantle-cell lymphoma derived from a variant with large cells as a leukaemic transformation); • WSU-DLCL2 (B-NHL; large B-cell diffuse lymphoma); • RL (B-NHL; undifferentiated diffuse); • OCI-Ly10 (B-NHL); • DoHH-2 (B-NHL); • RPMI-8226 (MM—multiple myeloma); • JVM-2 (B-CLL—B-cell chronic lymphocytic leukaemia); and • JVM-3 (B-CLL) • MV4-11 (AML) • MOLM13 (AML). • Solid tumour models: • HCT-116 (bowel cancer); • HT-29 (bowel cancer); • HC-15 (bowel cancer); • H460 (lung cancer; non-small-cell lung cancer); • A375 (melanoma); • B16F10 (melanoma); • MDA-A1 (breast cancer); • MDA-MB231 (breast cancer); • MDA-MB231 adr (breast cancer); • PANC-1 (pancreatic cancer); and • PC-3 (prostate cancer).
(§3) In order to measure the viability, the tumour cells are incubated in a 96-well or 384-well format for 48, 72 or 96 hours, preferably 72 hours, with a compound of the invention at dilutions of a factor 3 with, in general, nine doses in total, the highest dose being equal to 10 μM or 30 μM. The cell viability is evaluated by adding CellTiter-Blue® (Promega, Madison, Wis., United States) for 4 hours and end-point readings are taken using a SpectraMax Genmini EM (Molecular Devices, Sunnyvale, Calif., United States). The CellTiter-Blue® cell viability assay measures the ability of the cells in culture to reduce resazurin to resorufin, the fluorescence signal intensity being directly proportional to the number of live cells.

KG-1a = assay: Cell viability assay (CellTiter-Blue), KG-1a; type: cell-based; conditions: Homo sapiens; KG-1a cells; cell proliferation/viability; read-out: EC50 KG-1a μM (leukaemia)
Description: as §2, §3

MV4-11 = assay: Cell viability assay (CellTiter-Blue), MV4-11; type: cell-based; conditions: Homo sapiens; MV4-11 cells; cell proliferation/viability; read-out: IC50 MV4-11 μM (myeloma)
Description: as §2, §3

PI3K = PI3K biochemical inhibition
MOLM-13 = assay: Cell viability assay (CellTiter-Blue), MOLM-13; type: cell-based; conditions: Homo sapiens; MOLM-13 cells; cell proliferation/viability; read-out: IC50 MOLM-13 μM (myeloma)
Description: as §2, §3

HCT116 = assay: Cell viability assay (CellTiter-Blue), HCT116; type: cell-based; conditions: Homo sapiens, HCT-116; HCT116 cells; cell proliferation/viability; read-out: EC50 HCT116 μM (bowel)
Method: (§4) The representative compounds of the invention are also screened as regards their effects on cell proliferation and viability using a variety of human tumour cell lines, which are representative of various pathological indications. […]
as §3

B16F10 = assay: Cell viability assay (CellTiter-Blue), B16F10; type: cell-based, human; conditions: Mus musculus, B16-F10; B16F10 cells; cell proliferation/viability; read-out: EC50 B16F10 μM (melanoma)
Method: as §4, §3

H460 = assay: Cell viability assay (CellTiter-Blue), H460; type: cell-based; conditions: Homo sapiens, NCI-H460; H460 cells; cell proliferation/viability; read-out: EC50 H460 μM (lung)
Method: as §4, §3

Structure (SMILES)	IC50 (Pim-1) [µM]	IC50 (Pim-2) [µM]	IC50 (Pim-3) [µM]	IC50 (PLK1) [µM]	EC50 (EOL-1) [µM]	EC50 (KG-1a) [µM]	IC50 (MV4-11) [µM]	IC50 (PI3K) [µM]	IC50 (MOLM-13) [µM]	EC50 (HCT116) [µM]	EC50 (B16F10) [µM]	EC50 (H460) [µM]
c1cncc(-c2cc3c(cn2)[nH]c2ncccc23)c1 [Example 1, 6-pyrid-3-yl-9H-pyrrolo[2,3-b:5,4-c′]dipyridine]	0.001 to 0.1	1 to 5	0.1 to 1	0.1 to 1	1 to 5	1 to 5	1 to 5					
CC(C)(C)OC(=O)c1cnc2[nH]c3cnc(-c4cccnc4)cc3c2c1 [Example 5, 2-methylpropan-2-yl 6-(pyrid-3-yl)-9H-pyrrolo[2,3-b:5,4-c′]dipyridine-3-carboxylate]	0.001 to 0.1	> 5	0.1 to 1	> 5	0.1 to 1	0.1 to 1	0.1 to 1					
CCCN(C)c1cnc2[nH]c3cnc(-c4cccnc4)cc3c2c1 [Example 10, N-methyl-N-propyl-6-(pyrid-3-yl)-9H-pyrrolo[2,3-b:5,4-c′]dipyrid-3-amine]	0.001 to 0.1	1 to 5	0.001 to 0.1	0.1 to 1	0.1 to 1	0.1 to 1	0.1 to 1					
c1cncc(-c2cc3c(cn2)[nH]c2ncc(N4CCOCC4)cc23)c1 [Example 14, 3-(morpholin-4-yl)-6-(pyrid-3-yl)-9H-pyrrolo[2,3-b:5,4-c′]dipyridine]	0.001 to 0.1	1 to 5	0.001 to 0.1	> 5	0.1 to 1	1 to 5	0.1 to 1					
CC(C)(CO)COC(=O)c1cnc2[nH]c3cnc(-c4cccnc4)cc3c2c1 [Example 15, 3-hydroxy-2,2-dimethylpropyl 6-(pyrid-3-yl)-9H-pyrrolo[2,3-b:5,4-c′]-dipyridine-3-carboxylate]	0.001 to 0.1	0.1 to 1	0.001 to 0.1	> 5	0.1 to 1	0.1 to 1	0.1 to 1					
NS(=O)(=O)c1cccc(-c2c(F)cnc3[nH]c4cnc(-c5cccnc5)cc4c23)c1 [Example 21, 3-[3-Fluoro-6-(pyrid-3-yl)-9H-pyrrolo[2,3-b:5,4-c′]dipyrid-4-yl]-benzenesulfonamide]	0.001 to 0.1	> 5	0.1 to 1	0.001 to 0.1				1 to 5				
CS(=O)(=O)Nc1ccc(-c2c(F)cnc3[nH]c4cnc(-c5cccnc5)cc4c23)cc1 [Example 22, N-[4-(3-Fluoro-6-(pyrid-3-yl)-9H-pyrrolo[2,3-b:5,4-c′]dipyrid-4-yl)-phenyl]methanesulfon-amide]	0.001 to 0.1	0.1 to 1	0.001 to 0.1	0.001 to 0.1	0.001 to 0.1		0.001 to 0.1	0.1 to 1	0.001 to 0.1	0.001 to 0.1	0.001 to 0.1	0.001 to 0.1
COc1cc(OC)cc(-c2c(F)cnc3[nH]c4cnc(-c5cccnc5)cc4c23)c1 [Example 23, 4-(3,5-dimethoxy-phenyl)-3-fluoro-6-(pyrid-3-yl)-9H-pyrrolo-[2,3-b:5,4-c′]dipyridine]	0.001 to 0.1	> 5	0.1 to 1	1 to 5				> 5				
Oc1cccc(-c2c(F)cnc3[nH]c4cnc(-c5cccnc5)cc4c23)c1 [Example 26]	0.001 to 0.1	1 to 5	0.1 to 1					0.1 to 1				
Fc1cnc2[nH]c3cnc(-c4cccnc4)cc3c2c1/C=C/C1CC1 [Example 27, 4-[(E)-2-cyclopropyl-ethenyl]-3-fluoro-6-(pyrid-3-yl)-9H-pyrrolo-[2,3-b:5,4-c′]dipyridine]	0.001 to 0.1	> 5	0.1 to 1					> 5				
O=S(=O)(NC1CC1)c1ccc(-c2c(F)cnc3[nH]c4cnc(-c5cccnc5)cc4c23)cc1 [Example 28, N-cyclopropyl-4-(3-fluoro-6-(pyrid-3-yl)-9H-pyrrolo[2,3-b:5,4-c′]-dipyrid-4-yl]benzene-sulfonamide]	0.001 to 0.1	> 5	0.1 to 1	0.001 to 0.1				1 to 5				
Cn1cc(-c2cc3c(cn2)[nH]c2ncccc23)cn1 [Example 39, 6-(1-Methyl-1H-pyrazol-4-yl)-9H-pyrrolo[2,3-b:5,4-c′]dipyridine]	0.001 to 0.1	1 to 5	0.1 to 1	1 to 5	0.1 to 1	0.1 to 1	1 to 5		1 to 5			
COc1cnc2[nH]c3cnc(-c4cccnc4)cc3c2c1-c1ccc(NS(C)(=O)=O)cc1 [Example 44, N-[4-(3-methoxy-6-(pyrid-3-yl)-9H-pyrrolo[2,3-b:5,4-c′]dipyrid-4-yl)phenyl]methane-sulfonamide]	0.001 to 0.1	0.001 to 0.1	0.001 to 0.1	0.001 to 0.1	0.001 to 0.1		0.001 to 0.1	0.001 to 0.1	0.001 to 0.1			
CCN(CC)CCN1CCN(c2c(F)cnc3[nH]c4cnc(-c5cccnc5)cc4c23)CC1 [Example 79, N,N-diethyl-2-{4-[3-fluoro-6-(pyrid-3-yl)-9H-pyrrolo[2,3-b:5,4-c′]dipyrid-4-yl]-piperazin-1-yl}-ethanamine]	0.001 to 0.1	1 to 5	0.001 to 0.1	0.1 to 1				1 to 5				
Fc1cnc2[nH]c3cnc(-c4cccnc4)cc3c2c1N1CCN(CCCN2CCCCC2)CC1 [Example 86, 3-fluoro-4-{4-[3-(piperid-1-yl)propyl]piperazin-1-yl}-6-(pyrid-3-yl)-9H-pyrrolo-[2,3-b:5,4-c′]-dipyridine]	0.001 to 0.1	0.1 to 1	0.001 to 0.1	0.1 to 1	0.1 to 1		0.1 to 1	> 5				
CCN(CC)CCn1cc(-c2cnc3[nH]c4cnc(-c5cccnc5)cc4c3c2)cn1 [Example 123, N,N-diethyl-2-{4-[6-(pyrid-3-yl)-9H-pyrrolo-[2,3-b:5,4-c′]-dipyrid-3-yl]-1H-pyrazol-1-yl}-ethanamine]	0.001 to 0.1	0.1 to 1	0.001 to 0.1	1 to 5	0.001 to 0.1		0.001 to 0.1		0.001 to 0.1			
